Source: patent US20220380341A1, “INHIBITORS OF HIV-1 NEF FOR THE TREATMENT OF HIV DISEASE” (priority 2018, published 2022)
Values joined by “and” are separate entries in the source; they are usually repeats but may differ in a detail not shown here. Equal entries are not always repeated. Where two headings read alike, the source gives them in different places.

Legend:
TZM-bl cell line = type: cell-based; conditions: human, 1 μM
In short: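 Nef-dependent infectivity in TZM-bl cells: HIV-1NL4-3 infection with 1 μM compound, luciferase read at 48 h, normalized against DMSO wild-type and Nef-defective controls. Compound cytotoxicity in uninfected cells measured by Cell Titer Blue.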

HIV-1 NL4-3 = test: HIV-1 replication in normal donor PBMCs (p24 Gag AlphaLISA); type: cell-based; conditions: for HIV Replication PBMC IC50 vs. HIV NL4-3: Table 1, 4 days, words (Not active, Borderline) where no bound is given
Method: (§1) FIG. 4. Inhibition of HIV-1 replication by compounds disclosed herein in PBMCs. Donor PBMCs were infected with HIV-1 in the presence of inhibitor concentrations ranging from 1 to 1,000 nM or the DMSO carrier solvent as a negative control (0.1% DMSO final). Replication was assessed by p24 Gag AlphaLISA (Perkin Elmer) […]. Each donor was also infected with Nef-defective HIV-1 to establish the baseline for Nef-dependent enhancement of replication in each culture. Cytotoxicity was assessed in uninfected PBMCs over the same incubation period using the CellTiter-Blue assay (Promega). Data were fit by non-linear regression analysis (GraphPad Prism v.7.04) to determine the IC50 and CC50 values shown.
The tables also show data for HIV-1 Replication in normal donor peripheral blood mononuclear cells (PBMCs), which is assay is conducted as follows:
(§2) Non-HLA-typed buffy coats (Source: Pittsburgh Central Blood Bank, #E3755) are received and processed within 24 hours of blood donation. PBMCs are isolated via rocking for RBC separation following 1:1 dilution with PBS, followed by Ficoll gradient centrifugation. The lymphocyte fraction is removed and washed several times for a final concentration of ˜150-300×10^6 cells per donor. Cells are activated for 3 days with 1-5 μg/mL PHA (Sigma) and 50 U/mL IL-2. Cells are plated at 750,000 cells/ml and viability is checked at day 3 using the Cell Titer Blue assay (Promega). If cells are >90% viable, then they are infected with HIV-1 NL4-3, wild-type or Δ-Nef mutant (input typically 30-500 pg/mL p24 capsid equivalents) in the presence or absence of Nef inhibitor analogs. IL-2 is included in the media at the time of infection. After 4 days, cells are lysed with 1% Triton X-100 for 1.5 h, checked for viability via Cell Titer Blue, and frozen/stored at −20° C. HIV-1 replication is assessed with a high-sensitivity HIV-1 p24 AlphaLISA assay (Perkin Elmer) in ½-volume 96-well plates, using one-half of the recommended assay volumes for all reagents (including samples). Assays are read on the BioTek Cytation5 instrument; readout is in AlphaUnits and replication in p24 pg/mL is determined using an HIV-1 p24 capsid protein standard included in the Alpha kit.

HIV-1 NefNL4-3 = HIV-1 NefNL4-3 (Human immunodeficiency virus type 1 group M subtype B, UniProt P03406, A33V/T15A/T51N/V11I); test: Surface plasmon resonance binding to recombinant full-length Nef (NL4-3); conditions: for RU30/RUNef (extent of binding): response units at 30 μM relative to Nef immobilized on the SPR chip
uninfected PBMCs = type: cell-based; conditions: human
Method: as §1, §2

HIV-1NL4-3 = test: HIV-1 infectivity assay in TZM-bl reporter cell line (LTR-luciferase, 48 h); type: cell-based; conditions: for inhibition at 1 µM: Human immunodeficiency virus 1, TZM-bl
In short: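 Luciferase read-out 48 h post-infection; compound at 1 μM during HIV-1NL4-3 infection of TZM-bl cells. Percent inhibition scaled to DMSO wild-type virus (0%) and DMSO Nef-defective virus (100% of Nef-dependent effect). Viability checked separately in uninfected cells by Cell Titer Blue.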

[1] = molecular target: Nef from SIV (strain mac239) (Simian immunodeficiency virus, UniProt Q5QGG3); test: biochemical
Method: Also shown are SPR data recorded on a Reichert 4-channel SPR instrument. […] Recombinant Nef is immobilized on the biosensor surface, and each compound is injected and association/dissociation kinetics are recorded. The resulting data for the 3 isoforms are each best-fit using both a two-site model and a two-step, induced-fit model. Dissociation constants (KD), calculated from the kinetic association and dissociation constants from all three isoforms, are shown in columns 6-7. Data were fit using three regimes and the resulting KD: from each model are shown in the Table: 1:1 Langmuir fit; 2-site fit, which yields low and high affinity components; and a 2-step induced fit model.

HIV-1 Nef SF2 = molecular target: T1, HIV-1 Nef SF2 (Human immunodeficiency virus type 1 group M subtype B, UniProt P03407); test: biochemical; type: binding; conditions: two-step induced-fit model, Reichert SPR, read-out: Reichert SPR Nef SF2 (M) two-step fitting
T1 construct: made in house

[2] = KD, M, Table 4, SPR fit 1:1 Langmuir, KD = koff/kon
[3] = Table 4, 1:1 Langmuir fit, T = 1/koff
[4] = 1.0 μM, TZM-bl reporter cell line, Table 4, read-out: % Infectivity Inhibition
[5] = 48 h, Table 1, TZM-bl cells, 1 μM, 48 h, 100% = Nef-defective HIV-1, read-out: HIV-1 Infectivity % Inhibition Norm. to Δ-Nef @ 1 μM
[6] = KD, M, Table 4, SPR fit 2-step induced fit, KD = koff/kon × koff2/(koff2 + kon2)
[7] = Nef NL4-3 Binding, SPR 2-state fitting KD, Table 1, 2-step induced-fit model
[8] = Reichert SPR Nef NL43 (M) two-step fitting, KD, two-step induced-fit model, Reichert SPR, Table 3
[9] = Table 4, 2-step induced fit, T = 1/koff2
[10] = 1 μM, TZM-bl, normalized: DMSO wild-type HIV-1 = 0%, Nef-defective HIV-1 = 100%, read-out: HIV-1 Infectivity % Inhibition norm. to Δ-Nef @ 1 μM
[11] = read-out: Nef NL4-3 Binding, SPR 1:1 or 2-site fitting KD2, Table 1, 2-site fit, second component

SMILES	% Cell Viability (TZM-bl cell line) [%]	Percent Viability @ 1 μM (TZM-bl cells) (TZM-bl cell line) [%]	HIV Replication PBMC IC50 vs. HIV NL4-3 (HIV-1 NL4-3)	Kd (HIV-1 NefNL4-3) [M]	Kd (HIV-1 NefNL4-3; [2]) [M]	T, minutes (residence time) (HIV-1 NefNL4-3; [3])	RU30/RUNef (extent of binding) (HIV-1 NefNL4-3)	Toxicity in HIV Replication PBMC (Toxic @ concentration) (uninfected PBMCs)	inhibition at 1 µM (HIV-1NL4-3; [4]) [%]	inhibition at 1 µM (HIV-1NL4-3; [5]) [%]	Kd [1] [nM]	Kd (HIV-1 Nef SF2) [M]	Kd (HIV-1 NefNL4-3; [6]) [M]	Kd (HIV-1 NefNL4-3; [7])	Kd (HIV-1 NefNL4-3; [8]) [M]	T, minutes (residence time) (HIV-1 NefNL4-3; [9])	inhibition at 1 µM (HIV-1NL4-3; [10]) [%]	also measured
Oc1c(CCc2ccc(F)cc2)c(-c2ccc(C(F)(F)F)cc2)nn1-c1nc2ccncc2[nH]1 [Compound I-309, 4-[2-(4-fluorophenyl)ethyl]-1-{3H-imidazo[4,5-c]pyridin-2-yl}-3-[4-(trifluoromethyl)phenyl]-1H-pyrazol-5-ol]	99.1	99.1	Not active	5.76e-10	5.76e-10	1.78E + 04 minutes	1.59E- 03	Toxic @ 1 μM	92.2	92.2								
CC(C)(C)OC(=O)N1CCC(CCc2c(-c3ccc(S(C)(=O)=O)cc3)nn(-c3nc4ccccc4[nH]3)c2O)CC1 [Compound I-201, tert-butyl 4-{2-[1-(1H-1,3-benzodiazol-2-yl)-5-hydroxy-3-(4-methanesulfonylphenyl)-1H-pyrazol-4-yl]ethyl}piperidine-1-carboxylate]	70.5		Not active				1.83E- 02	Toxic @ 1 μM	53.4		23.8	5.01e-07	3.94e-07	3.94e-07 M and 1.93e-06 M	3.94e-07	2.62E + 01 minutes	53.4	Toxicity % Viability @ 1 μM (TZM-bl) (TZM-bl cell line): 70.5%
CC(C)(C)OC(=O)N1CCC(CCc2c(-c3ccc(S(C)(=O)=O)cc3)nn(-c3nc4cc(Cl)ccc4[nH]3)c2O)CC1 [Compound I-215, tert-butyl 4-{2-[1-(5-chloro-1H-1,3-benzodiazol-2-yl)-5-hydroxy-3-(4-methanesulfonylphenyl)-1H-pyrazol-4-yl]ethyl}piperidine-1-carboxylate]	74.5		Not active				1.00E- 02	Toxic @ 1 μM	53.5				1.62e-07			5.87E + 01 minutes		HIV-1 Infectivity % Inhibition Norm. to Δ-Nef @ 1 μM (HIV-1NL4-3; Table 1, TZM-bl cells, 1 μM, 48 h, 100% = Nef-defective HIV-1): 73.6%
CC(C)OC(=O)N1CCC(c2nn(-c3nc4cc(Cl)ccc4[nH]3)c(O)c2CCC2CCOCC2)CC1 [Compound I-701, propan-2-yl4-[1-(5-chloro-1H-1,3-benzodiazol-2-yl)-5-hydroxy-4-[2-(oxan-4-yl)ethy1]-1H-pyrazol-3-yl]piperidine-1-carboxylate]	98.7	98.7		2.64e-08			5.85E- 03	Toxic @ 10 nM	100	106	19300	1.37e-07	2.88e-06	2.88e-06 M	2.88e-06	4.73E + 00 minutes	106	Kd (HIV-1 NefNL4-3; [11]): 4.02e-06 M
O=C(OCc1ccccc1)N1CCC(c2nn(-c3nc4cccc(Cl)c4[nH]3)c(O)c2CCc2ccc(F)cc2)CC1 [Compound I-166, benzyl 4-[1-(7-chloro-1H-1,3-benzodiazol-2-yl)-4-[2-(4-fluorophenyl)ethyl]-5-hydroxy-1H-pyrazol-3-yl]piperidine-1-carboxylate]	97.0	97.0	Not active	6.03e-09	6.03e-09	2.07E + 03 minutes	4.21E- 03	Toxic @ 1 μM	24.6	24.6								
CC(=O)N1CCC(c2nn(-c3nc4ccc(Cl)cc4[nH]3)c(O)c2CCc2ccc(F)cc2)CC1 [Compound I-702, 1-{4-[1-(5-chloro-1H-1,3-benzodiazol-2-yl)-4-[2-(4-fluorophenyl)ethyl]-5-hydroxy-1H-pyrazol-3-yl]piperidin-1-yl}ethan-1-one]	96.4	96.4		6.05e-07			1.56E- 02	Toxic @ 10 nM	100	148			3.59e-06	7.87e-07 M		5.05E + 00 minutes		Kd (HIV-1 NefNL4-3; [11]): 2.72e-06 M
Oc1c(CCc2ccc(F)cc2)c(-c2ccc(C(F)(F)F)cc2)nn1-c1cc(C(F)(F)F)n[nH]1 [Compound I-601, 4-[2-(4-fluorophenyl)ethyl]-5′-(trifluoromethyl)-3-[4-(trifluoromethyl)phenyl]-2′H-[1,3′-bipyrazol]-5-ol]	100	101.3		1.72e-06			4.19E- 02		67.6		22000	4.55e-05	2.64e-05		8.96e-09	5.59E + 00 minutes	67.6	IC50 (HIV-1 NL4-3; Human immunodeficiency virus 1, NL43, PBMC, 96 h, Table 2, 4 days): ≤ 10 nM; Kd (HIV-1 NefNL4-3; Nef NL4-3 Binding, SPR 2-state fitting KD, Table 2, 2-step induced-fit model): 8.96e-09 M; Kd (HIV-1 NefNL4-3; read-out: Nef NL4-3 Binding, SPR 1:1 or 2-site fitting KD2, Table 2, 2-site fit, second component): 2.64e-05 M; inhibition at 1 µM (HIV-1NL4-3; 48 h, Table 2, TZM-bl cells, 1 μM, 48 h, 100% = Nef-defective HIV-1, read-out: HIV-1 Infectivity % Inhibition Norm. to Δ-Nef @ 1 μM): 67.6%
Oc1c(CCc2ccc(F)cc2)c(-c2ccc(C(F)(F)F)cc2)nn1-c1nc2cccnc2[nH]1 [Compound I-301, 4-[2-(4-fluorophenyl)ethyl]-1-{1H-imidazo[4,5-b]pyridin-2-yl}-3-[4-(trifluoromethyl)phenyl]-1H-pyrazol-5-ol]	90.7						1.34E- 02	Toxic @ 1 μM	81.2		1.74	3.69e-08	6e-11		6e-11		81.2	Toxicity % Viability @ 1 μM (TZM-bl) (TZM-bl cell line): 90.7%; Kd (HIV-1 NefNL4-3; Nef NL4-3 Binding, SPR 1:1 or 2-site fitting KD2, Table 1, 2-site fit, second component): 2.31e-05 M
O=C(OCc1ccccc1)N1CCC(Cc2c(-c3ccc(C(F)(F)F)cc3)nn(-c3nc4ccccc4[nH]3)c2O)CC1 [Compound I-162, benzyl 4-{[1-(1H-1,3-benzodiazol-2-yl)-5-hydroxy-3-[4-(trifluoromethyl)phenyl]-1H-pyrazol-4-yl]methyl}piperidine-1-carboxylate]	90.8		Not active	1.86e-09	1.86e-09	8.05E + 03 minutes	4.69E- 03	Toxic @ 1 μM	77.5									Nef NL4-3 Binding, SPR 1:1 or 2-site fitting KD1 (HIV-1 NefNL4-3; Table 1, 1:1 Langmuir fit where the KD2 cell says '1 to 1 fitting', else 2-site fit): No Interaction
